Assays:
hOx1R [1] = molecular target: T1, hOx1R (Homo sapiens (Human), UniProt O43613); test: Calcium accumulation in cells (FLIPR), hOx1R; format: cell-based; conditions: for Ki: inhibition of orexin A induced calcium accumulation, Cheng and Prusoff correction
How it was run: (§1)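 Cells expressing human orexin 1 or 2 receptor, serum-deprived overnight, loaded with Fluo-4-AM (2 μM) plus 0.1 mM probenecid, pH 7.4 HEPES buffer with 1% BSA.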

hOx2R [2] = molecular target: T2, hOx2R (Homo sapiens (Human), UniProt O43614); test: Calcium accumulation in cells (FLIPR), hOx2R; format: cell-based; conditions: inhibition of orexin A induced calcium accumulation, Cheng and Prusoff correction
How it was run: as §1

hOx1R [3] = molecular target: T1, hOx1R; test: Radioligand binding assay, [125I]orexin A, hOx1R; conditions: radioligand [125I]orexin A, competition
Protocol: (§2) For crude cell membrane preparations, cells (CHO, Chinese hamster ovary or HEK, human embryonic kidney) expressing human orexin 1 or human orexin 2 receptors, were washed with HEPES (10 mM, pH 7.5), scraped off the culture plates with the same buffer, and centrifuged at 4° C. for 5 min at 2500×g. The cell pellet was either stored at −80° C. or used directly. Before the experiments, cell membranes were re-suspended in binding assay buffer (10 mM HEPES, 0.5% (w/v) bovine serum albumin, pH 7.5) by homogenisation with a Polytron homogeniser at 50 Hz for 20 s. Cell membranes were also used as made available by commercial providers.
(§3) In initial saturation experiments (to calculate Bmax), cell homogenates (150 μl) were incubated with 25-300 pM of the radioligand ([^125I]orexin A, 50 μl), 8 concentrations in triplicates in the presence or absence Orexin A (1 μM, 50 μl) to define non specific binding. Bound radioactivity was measured, and data were analysed with the program XLFIT or Graphpad Prism. Protein concentration was determined according to the Bradford/BioRad Protein Assay Kit.
(§4) In competition experiments, cell homogenates (150 μl) were incubated in assay buffer (10 mM HEPES, pH 7.5, 0.5% (w/v) bovine serum albumin, 5 mM MgCl2, 1 mM CaCl2, and tween 0.05%) for 1 h at room temperature with about 100 pM of the radioligand ([^125I]orexin A, 2100 Ci/mmole, 50 μl), and with various concentrations of compounds of the invention (50 μl) in triplicates; non-specific binding was determined in the presence of Orexin A (1 μM). Reactions were terminated by vacuum filtration, 3 washes of ice cold wash buffer (Tris-HCl pH 7.4/10 mM, with NaCl 154 mM).

hOx2R [4] = molecular target: T2, hOx2R; test: Radioligand binding assay, [125I]orexin A, hOx2R; conditions: radioligand [125I]orexin A, competition
Protocol: as §2, §3, §4

T2 sequence (O43614 whole entry): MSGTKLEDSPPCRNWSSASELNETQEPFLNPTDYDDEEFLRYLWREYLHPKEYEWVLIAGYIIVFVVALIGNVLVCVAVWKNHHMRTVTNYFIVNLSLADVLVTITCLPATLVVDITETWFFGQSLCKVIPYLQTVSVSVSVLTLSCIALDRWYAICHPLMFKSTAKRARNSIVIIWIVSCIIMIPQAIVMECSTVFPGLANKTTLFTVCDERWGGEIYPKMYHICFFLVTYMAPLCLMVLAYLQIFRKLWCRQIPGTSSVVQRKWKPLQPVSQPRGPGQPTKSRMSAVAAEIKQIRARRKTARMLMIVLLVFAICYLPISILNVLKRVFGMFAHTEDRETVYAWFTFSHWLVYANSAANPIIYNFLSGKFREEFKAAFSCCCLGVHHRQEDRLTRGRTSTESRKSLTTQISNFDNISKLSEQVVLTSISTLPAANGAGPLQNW
T1 sequence (O43613 whole entry): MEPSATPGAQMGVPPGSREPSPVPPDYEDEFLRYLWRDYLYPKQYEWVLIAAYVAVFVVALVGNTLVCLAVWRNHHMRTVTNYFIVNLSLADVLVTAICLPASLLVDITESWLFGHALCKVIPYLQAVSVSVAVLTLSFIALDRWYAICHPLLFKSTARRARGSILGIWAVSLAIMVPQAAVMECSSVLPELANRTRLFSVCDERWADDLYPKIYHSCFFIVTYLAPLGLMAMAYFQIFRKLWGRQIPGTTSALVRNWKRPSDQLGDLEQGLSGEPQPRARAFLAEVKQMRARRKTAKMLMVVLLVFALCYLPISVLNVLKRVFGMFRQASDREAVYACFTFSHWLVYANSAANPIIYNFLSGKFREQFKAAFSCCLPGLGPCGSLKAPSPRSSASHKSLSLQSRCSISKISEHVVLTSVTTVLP

| SMILES | Ki (hOx1R [1]) [nM] | Ki (hOx2R [2]) [nM] | Kd (hOx1R [3]) [nM] | Kd (hOx2R [4]) [nM] | inhibition at 10 µM (hOx1R [1]; measured at a concentration of 10 μM of compound) [%] |
| --- | --- | --- | --- | --- | --- |
| O=C1N(Cc2cccc3ccccc23)CCCC12CCN(c1cnc3ccccc3n1)CC2 [Example 2, 2-(naphthalen-1-ylmethyl)-9-(quinoxalin-2-yl)-2,9-diazaspiro[5.5]undecan-1-one] | 482 | 30 | 360 | 34 | – |
| O=C1N(Cc2cccc3[nH]ccc23)CCCC12CCN(c1cnc3ccccc3n1)CC2 [Example 3, 2-((1H-indol-4-yl)methyl)-9-(quinoxalin-2-yl)-2,9-diazaspiro[5.5]undecan-1-one] | 474 | 63 | 630 | 130 | – |
| O=C1N(Cc2cccc3c2OCCO3)CCCC12CCN(c1cnc3ccccc3n1)CC2 [Example 4, 2-((2,3-dihydrobenzo[b][1,4]dioxin-5-yl)methyl)-9-(quinoxalin-2-yl)-2,9-diazaspiro[5.5]undecan-1-one] | 1360 | 46 | 2060 | 121 | – |
| O=C1N(Cc2cccc(-c3cccnc3)c2)CCCC12CCN(c1cnc3ccccc3n1)CC2 [Example 5, 2-(3-(pyridin-3-yl)benzyl)-9-(quinoxalin-2-yl)-2,9-diazaspiro[5.5]undecan-1-one] | 83 | 22 | 426 | 98 | – |
| O=C1N(Cc2ccccc2)CCCC12CCN(c1cnc3ccccc3n1)CC2 [Example 6, 2-benzyl-9-(quinoxalin-2-yl)-2,9-diazaspiro[5.5]undecan-1-one] | 1480 | 371 | 1310 | 300 | – |
| O=C1N(Cc2ccc3ccccc3c2)CCCC12CCN(c1cnc3ccccc3n1)CC2 [Example 7, 2-(naphthalen-2-ylmethyl)-9-(quinoxalin-2-yl)-2,9-diazaspiro[5.5]undecan-1-one] | – | – | > 10000 | 9870 | – |
| O=C1N(Cc2cccc3c2OCO3)CCCC12CCN(c1cnc3ccccc3n1)CC2 [Example 9, 2-(benzo[d][1,3]dioxol-4-ylmethyl)-9-(quinoxalin-2-yl)-2,9-diazaspiro[5.5]undecan-1-one] | 904 | 35 | 2350 | 413 | – |
| O=C1N(Cc2ccccc2)CCCC12CCN(c1nc3ccccc3[nH]1)CC2 [Example 10, 9-(1H-benzo[d]imidazol-2-yl)-2-benzyl-2,9-diazaspiro[5.5]undecan-1-one] | – | 1070 | 3360 | 439 | 0 |
| Cn1c(N2CCC3(CCCN(Cc4cccc5ccccc45)C3=O)CC2)nc2ccccc21 [Example 12, 9-(1-methyl-1H-benzo[d]imidazol-2-yl)-2-(naphthalen-1-ylmethyl)-2,9-diazaspiro[5.5]undecan-1-one] | – | – | > 10000 | 6100 | – |
| Cc1cc2c(CN3CCCC4(CCN(c5cnc6ccccc6n5)CC4)C3=O)cccc2[nH]1 [Example 13, 2-((2-methyl-1H-indol-4-yl)methyl)-9-(quinoxalin-2-yl)-2,9-diazaspiro[5.5]undecan-1-one] | 365 | 35 | 776 | 62 | – |
| O=C1N(Cc2cccc(C(F)(F)F)c2)CCCC12CCN(c1cnc3ccccc3n1)CC2 [Example 14, 9-(quinoxalin-2-yl)-2-(3-(trifluoromethyl)benzyl)-2,9-diazaspiro[5.5]undecan-1-one] | 948 | 112 | 1380 | 211 | – |
| Cc1cccc(CN2CCCC3(CCN(c4cnc5ccccc5n4)CC3)C2=O)c1 [Example 15, 2-(3-methylbenzyl)-9-(quinoxalin-2-yl)-2,9-diazaspiro[5.5]undecan-1-one] | 1380 | 155 | 1400 | 288 | – |
| O=C1N(Cc2cccc3cccnc23)CCCC12CCN(c1cnc3ccccc3n1)CC2 [Example 21, 2-(quinolin-8-ylmethyl)-9-(quinoxalin-2-yl)-2,9-diazaspiro[5.5]undecan-1-one] | 1760 | 213 | 3280 | 211 | – |
| O=C1N(Cc2cccc(-c3ccccc3)c2)CCCC12CCN(c1cnc3ccccc3n1)CC2 [Example 22, 2-(biphenyl-3-ylmethyl)-9-(quinoxalin-2-yl)-2,9-diazaspiro[5.5]undecan-1-one] | 518 | 51 | 1320 | 59 | – |
| O=C1N(Cc2ccccc2C(F)(F)F)CCCC12CCN(c1cnc3ccccc3n1)CC2 [Example 23, 9-(quinoxalin-2-yl)-2-(2-(trifluoromethyl)benzyl)-2,9-diazaspiro[5.5]undecan-1-one] | 2740 | 280 | 4480 | 1090 | – |
| O=C1N(Cc2ccc(C(F)(F)F)cc2)CCCC12CCN(c1cnc3ccccc3n1)CC2 [Example 24, 9-(quinoxalin-2-yl)-2-(4-(trifluoromethyl)benzyl)-2,9-diazaspiro[5.5]undecan-1-one] | – | – | > 10000 | 5240 | – |
| O=C1N(Cc2ccc3c(c2)OCCO3)CCCC12CCN(c1cnc3ccccc3n1)CC2 [Example 25, 2-((2,3-dihydrobenzo[b][1,4]dioxin-6-yl)methyl)-9-(quinoxalin-2-yl)-2,9-diazaspiro[5.5]undecan-1-one] | – | – | 5250 | 3210 | – |
| O=C1N(Cc2cccc(Cl)c2)CCCC12CCN(c1cnc3ccccc3n1)CC2 [Example 27, 2-(3-chlorobenzyl)-9-(quinoxalin-2-yl)-2,9-diazaspiro[5.5]undecan-1-one] | 740 | 84 | 702 | 169 | – |
| Cc1onc(-c2ccccc2)c1CN1CCCC2(CCN(c3cnc4ccccc4n3)CC2)C1=O [Example 34, 2-((5-methyl-3-phenylisoxazol-4-yl)methyl)-9-(quinoxalin-2-yl)-2,9-diazaspiro[5.5]undecan-1-one] | 1560 | 88 | 4320 | 181 | – |
| O=C1CCCC2(CCN(c3cnc4ccccc4n3)CC2)N1Cc1cccc2[nH]ccc12 [Example 38, 1-((1H-indol-4-yl)methyl)-9-(Quinoxalin-2-yl)-1,9-diazaspiro[5.5]undecan-2-one] | 13 | 1 | 17 | 7 | – |
| Cc1ccc(C)c(CN2C(=O)CCCC23CCN(c2cnc4ccccc4n2)CC3)c1 [Example 41, 1-(2,5-dimethylbenzyl)-9-(quinoxalin-2-yl)-1,9-diazaspiro[5.5]undecan-2-one] | 77 | 16 | 100 | 36 | – |
| O=C1CCCC2(CCN(c3nc4ccccc4o3)CC2)N1Cc1cccc2[nH]ccc12 [Example 42, 1-((1H-indol-4-yl)methyl)-9-(benzo[d]oxazol-2-yl)-1,9-diazaspiro[5.5]undecan-2-one] | 20 | 3 | 36 | 12 | – |
| O=C1N(Cc2cccc(-c3ccccn3)c2)CCCC12CCN(c1cnc3ccccc3n1)CC2 [Example 54, 2-(3-(pyridin-2-yl)benzyl)-9-(quinoxalin-2-yl)-2,9-diazaspiro[5.5]undecan-1-one] | 420 | 47 | 634 | 175 | – |
| O=C1N(Cc2c[nH]c3ncccc23)CCCC12CCN(c1cnc3ccccc3n1)CC2 [Example 57, 2-((1H-pyrrolo[2,3-b]pyridin-3-yl)methyl)-9-(quinoxalin-2-yl)-2,9-diazaspiro[5.5]undecan-1-one] | 1030 | 92 | 959 | 159 | – |
| O=C1CCCC2(CCN(c3nc4cc(Cl)ccc4o3)CC2)N1Cc1cccc2[nH]ccc12 [Example 136, 1-((1H-indol-4-yl)methyl)-9-(5-chlorobenzo[d]oxazol-2-yl)-1,9-diazaspiro[5.5]undecan-2-one] | 657 | 11 | 1410 | 96 | – |

From US8530648B2, “Diaza-spiro[5.5]undecanes” (Novartis AG, priority 2009, dated 2013)
